Values quoted from earlier work in patent US20020010202A1, “Combinations of prostaglandins and brimonidine or derivatives thereof” (Allergan Sales, Inc., priority 1994, published 2002).

What was measured:
[1] = in vivo
[2] = adjunctive to timolol in patients; statistically significant
[3] = pressure rise with microkeratomes in LASIK

Compound	neuroprotection in the eye [1]	IOP-lowering effect [2]	nerve fiber thinning [3]	adverse effects (in vivo)	duration of IOP decrease (in vivo)	mean decrease in IOP (topically active carbonic anhydrase inhibitor)
Brc1c(NC2=NCCN2)ccc2nccnc12 [Brimonidine]	exhibited neuroprotective effects in the eye	about 20%	lessened or totally prevented	–	–	–
CCN[C@H]1C[C@H](C)S(=O)(=O)c2sc(S(N)(=O)=O)cc21 [MK 507]	–	–	–	blanching of the conjunctiva, minimal mydriasis and eyelid retraction	≤ 12 h	25%
CC(C)(C)NC[C@H](O)COc1nsnc1N1CCOCC1 [timolol, (S)-1-tert-Butylamino-3-[(4-morpholino-1,2,5-thiadiazol-3-yl)oxy]-2-propanol]	did not exhibit neuroprotection	–	–	–	–	–
